The target of the first assay is T1, mutant MGL (Homo sapiens, UniProt Q99685, L169S/L176S).
T1 sequence (Q99685 1-303 L169S/L176S): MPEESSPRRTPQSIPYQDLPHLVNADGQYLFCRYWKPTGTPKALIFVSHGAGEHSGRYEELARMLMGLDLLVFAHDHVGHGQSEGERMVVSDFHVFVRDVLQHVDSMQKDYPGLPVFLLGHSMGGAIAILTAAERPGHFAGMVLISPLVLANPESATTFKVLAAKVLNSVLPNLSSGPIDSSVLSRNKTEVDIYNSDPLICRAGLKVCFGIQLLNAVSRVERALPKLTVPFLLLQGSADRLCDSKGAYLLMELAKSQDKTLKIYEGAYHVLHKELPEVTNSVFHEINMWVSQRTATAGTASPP
In words: MGL ThermoFluor assay - mutant. The settings on record: ThermoFluor concentration-response, read-out: MGL mutant ThermoFluor Kd. In kind it is binding.
As to `O=C(c1ccc(SCc2ccc(Cl)c(Cl)c2)cc1)N1CC(N2CCN(C(=O)c3nccs3)CC2)C1` [Cpd 414, 1-[1-({4-[(3,4-Dichlorobenzyl)sulfanyl]phenyl}carbonyl)azetidin-3-yl]-4-(1,3-thiazol-2-ylcarbonyl)piperazine], the Kd amounted to 0.025 µM.
Turning to `O=C(c1ccc(CSc2cccc(Cl)c2)cc1)N1CC(N2CCN(C(=O)C(F)(F)F)CC2)C1` [Cpd 955], the Kd amounted to 1.11 µM.
`O=C(c1ccccc1)N1CCN(C2CN(C(=O)c3ccc(CNc4c(F)cccc4F)cc3)C2)CC1` [Cpd 556]: the Kd was 0.097 µM.
Same read-out and setting: then `O=C(c1ccccc1)N1CCN(C2CN(C(=O)c3ccc(-n4cnc5ccccc54)cc3)C2)CC1` [Cpd 48, 1-[4-({3-[4-(Phenylcarbonyl)piperazin-1-yl]azetidin-1-yl}carbonyl)phenyl]-1H-benzimidazole], with 1 µM; and `O=C(c1ccccc1)N1CCN(C2CN(C(=O)c3ccc(Br)cc3)C2)CC1` [Cpd 27, 1-{1-[(4-Bromophenyl)carbonyl]azetidin-3-yl}-4-(phenylcarbonyl)piperazine], with 4.55 µM; and `O=C(c1ccccc1)N1CCN(C2CN(C(=O)c3ccc4c(ccn4-c4ncc(F)cn4)c3)C2)CC1` [Cpd 598, 1-(5-Fluoropyrimidin-2-yl)-5-({3-[4-(phenylcarbonyl)piperazin-1-yl]azetidin-1-yl}carbonyl)-1H-indole], with 0.249 µM.
On to `O=C(c1ccccc1)N1CCN(C2CN(C(=O)c3ccc(-c4ccc(Cl)cc4)cc3)C2)CC1` [Cpd 78, 1-{1-[(4′-Chlorobiphenyl-4-yl)carbonyl]azetidin-3-yl}-4-(phenylcarbonyl)piperazine], for which the Kd was determined as 0.08 µM.
`O=C(c1ccccc1)N1CCN(C2CN(C(=O)c3ccccc3NCc3ccccc3)C2)CC1` [Cpd 52, N-Benzyl-2-({3-[4-(phenylcarbonyl)piperazin-1-yl]azetidin-1-yl}carbonyl)aniline]: the Kd was found to be 3.33 µM.
Still for that read-out and setting: then `Cc1nc(-c2cccc(Cl)c2)sc1C(=O)N1CC(N2CCN(C(=O)c3ccccc3)CC2)C1` [Cpd 620, 1-(1-{[2-(3-Chlorophenyl)-4-methyl-1,3-thiazol-5-yl]carbonyl}azetidin-3-yl)-4-(phenylcarbonyl)piperazine], with 0.154 µM; and `O=C(c1ccc(Cc2ccc(C(F)(F)F)cc2)cc1)N1CC(N2CCN(C(=O)c3nccs3)CC2)C1` [Cpd 985], with 0.005 µM; and `O=C(c1ccccc1)N1CCN(C2CN(C(=O)c3ccc(-c4ccccc4)c(F)c3)C2)CC1` [Cpd 81, 1-{1-[(2-Fluorobiphenyl-4-yl)carbonyl]azetidin-3-yl}-4-(phenylcarbonyl)piperazine], with 0.0667 µM.
For the molecule `Cc1ccc(-c2ccc(C(=O)N3CC(N4CCN(C(=O)c5cscn5)CC4)C3)[nH]2)cc1` [Cpd 298], the Kd is 2.91 µM.
`O=C(c1ccc(-c2ccccc2)cc1)N1CCN(C2CN(C(=O)c3cscn3)C2)C(c2ccccc2)C1` (stereo not shown) [Cpd 1402, 4-(Biphenyl-4-ylcarbonyl)-2-phenyl-1-[1-(1,3-thiazol-4-ylcarbonyl)azetidin-3-yl]piperazine]: the Kd worked out at 2 µM.
Regarding `O=C(c1ccc(C2CCCCC2)cc1)N1CC(N2CCN(C(=O)c3ccccn3)CC2)C1` [Cpd 4, 1-{1-[(4-Cyclohexylphenyl)carbonyl]azetidin-3-yl}-4-(pyridin-2-ylcarbonyl)piperazine], the Kd was 0.143 µM.
As to `O=C(c1ccccc1)N1CCN(C2CN(C(=O)c3ccc(NC4CCC(F)(F)CC4)cc3)C2)CC1` [Cpd 530], the Kd turned out to be 0.089 µM.
For the molecule `O=C(c1ccccc1)N1CCN(C2CN(C(=O)c3cccn(Cc4cccc(Cl)c4)c3=O)C2)CC1` [Cpd 562, 1-(3-Chlorobenzyl)-3-({3-[4-(phenylcarbonyl)piperazin-1-yl]azetidin-1-yl}carbonyl)pyridin-2(1H)-one], the Kd was more than 31.2 µM.
Consider `O=C(c1ccc(SCc2ccc(Cl)cc2)cc1)N1CC(N2CCN(C(=O)c3nccs3)CC2)C1` [Cpd 415], for which the Kd came out at 0.008 µM.
Turning to `Cc1ccc(Sc2ncccc2C(=O)N2CC(N3CCN(C(=O)c4cscn4)CC3)C2)cc1` [Cpd 479], the Kd was 6.67 µM.
As for `O=C(c1ccc2c(c1)C(Cc1ccccc1)(Cc1ccccc1)C(=O)N2Cc1ccccc1)N1CC(N2CCN(C(=O)c3nccs3)CC2)C1` [Cpd 1431], the Kd is 0.035 µM.
On the same count and under the same terms, then `O=C(c1ccc(Cc2ccccc2)cc1)N1CC(N2CCN(C(=O)c3nccs3)C(c3ccccc3)C2)C1` (stereo not shown) [Cpd 1464, 4-{1-[(4-Benzylphenyl)carbonyl]azetidin-3-yl}-2-phenyl-1-(1,3-thiazol-2-ylcarbonyl)piperazine], with more than 31.2 µM.
In the case of `Cc1nc(C(=O)N2CCN(C3CN(C(=O)c4ccc(-c5ccccc5)cc4)C3)CC2)cs1` [Cpd 10, 1-[1-(Biphenyl-4-ylcarbonyl)azetidin-3-yl]-4-[(2-methyl-1,3-thiazol-4-yl)carbonyl]piperazine], the Kd came out at 0.556 µM.
On to `O=C(c1ccccc1)N1CCN(C2CN(C(=O)c3ccc(Oc4ccccn4)cc3)C2)CC1` [Cpd 1484], for which the Kd was 20 µM.
Take `O=C(c1ccccc1)N1CCN(C2CN(C(=O)c3ccc(C4CCCCC4)cc3)C2)CC1` [Cpd 1, 1-{1-[(4-Cyclohexylphenyl)carbonyl]azetidin-3-yl}-4-(phenylcarbonyl)-piperazine]: the Kd stood at 0.0059 µM.
For the molecule `O=C(c1ccccc1)N1CCN(C2CN(C(=O)c3cccc(-n4cccc4)c3)C2)CC1` [Cpd 627, 1-(Phenylcarbonyl)-4-(1-{[3-(1H-pyrrol-1-yl)phenyl]carbonyl}azetidin-3-yl)piperazine], the Kd was determined as 10 µM.
Take `O=C(c1ccccc1)N1CCN(C2CN(C(=O)c3ccc(SCc4ccc(Cl)c(Cl)c4)cc3)C2)CC1` [Cpd 417]: the Kd amounted to 0.0667 µM.
`CC1CN(C2CN(C(=O)c3cccc(-c4ccccc4)c3)C2)CCN1C(=O)c1nccs1` (stereo not shown) [Cpd 116]: the Kd worked out at 2 µM.

Still in this assay, the particulars now being: ThermoFluor thermal stability binding assay, read-out: MGL mutant ThermoFluor Kd.
As for `O=C(c1ccc2c(c1)CCCN2c1ccc(C(F)(F)F)cc1)N1CC(N2CCN(C(=O)c3nccs3)CC2)C1` [Cpd 373, 6-({3-[4-(1,3-Thiazol-2-ylcarbonyl)piperazin-1-yl]azetidin-1-yl}carbonyl)-1-[4-(trifluoromethyl)phenyl]-1,2,3,4-tetrahydroquinoline], the Kd was 0.0055 µM.
In the case of `O=C(c1nccs1)N1CCN(C2CN(C(=O)c3ccc(-c4cccc(C(F)(F)F)c4)cc3F)C2)CC1` [Cpd 244, 1-(1-{[3-Fluoro-3′-(trifluoromethyl)biphenyl-4-yl]carbonyl}azetidin-3-yl)-4-(1,3-thiazol-2-ylcarbonyl)piperazine], the Kd was 0.002 µM.
Consider `O=C(c1ccccc1)N1CCN(C2CN(C(=O)c3ccc(OCc4ccc(Cl)c(Cl)c4)c(Cl)c3)C2)CC1` [Cpd 399], for which the Kd came to 0.0408 µM.
As to `O=C(c1ccccc1)N1CCN(C2CN(C(=O)c3ccc(OCc4ccc(S(=O)(=O)N5CCOCC5)cc4)cc3)C2)CC1` [Cpd 394], the Kd amounted to 0.846 µM.
For `O=C(C=Cc1ccc2ccccc2c1)N1CC(N2CCN(C(=O)c3nccs3)CC2)C1` [Cpd 297], the Kd was found to be 0.333 µM.
Take `O=C(c1nccs1)N1CCN(C2CN(C(=O)c3sc4cc(-c5ccccc5)ccc4c3Cl)C2)CC1` [Cpd 343, 1-{1-[(3-Chloro-6-phenyl-1-benzothiophen-2-yl)carbonyl]azetidin-3-3yl}-4-(1,3-thiazol-2-ylcarbonyl)piperazine]: the Kd turned out to be 0.0004 µM.
Consider `O=C(c1ccccc1)N1CCN(C2CN(C(=O)c3ccc(OCc4cccc(Br)n4)cc3)C2)CC1` [Cpd 552], for which the Kd worked out at 0.4 µM.
As to `CC(=O)N1c2ccc(Br)cc2CCC1C(=O)N1CC(N2CCN(C(=O)c3ccccc3)CC2)C1` (stereo not shown) [Cpd 378], the Kd was more than 76.7 µM.
With `CC(=O)Nc1cccc(-c2ccc(C(=O)N3CC(N4CCN(C(=O)c5cscn5)CC4)C3)cc2)c1` [Cpd 235, N-[4′-({3-[4-(1,3-Thiazol-4-ylcarbonyl)piperazin-1-yl]azetidin-1-yl}carbonyl)biphenyl-3-yl]acetamide], the Kd amounted to 0.588 µM.
For the molecule `CC(=O)Nc1cccc(-c2ccc(C(=O)N3CC(N4CCN(C(=O)c5nccs5)CC4)C3)cc2)c1` [Cpd 234, N-[4′-({3-[4-(1,3-Thiazol-2-ylcarbonyl)piperazin-1-yl]azetidin-1-yl}carbonyl)biphenyl-3-yl]acetamide], the Kd was 0.0476 µM.
Take `O=C(c1ccccc1)N1CCN(C2CN(C(=O)c3ccc4c(ccn4S(=O)(=O)c4ccccc4)c3)C2)CC1` [Cpd 130]: the Kd was determined as 0.25 µM.
For the molecule `O=C(/C=C/c1ccccc1Cl)N1CC(N2CCN(C(=O)c3nccs3)CC2)C1` [Cpd 295, 1-{1-[(2E)-3-(2-Chlorophenyl)prop-2-enoyl]azetidin-3-yl}-4-(1,3-thiazol-2-ylcarbonyl)piperazine], the Kd is 0.833 µM.
For `O=C(c1nccs1)N1CCN(C2CN(C(=O)c3cnn(-c4ccccc4)c3C(F)(F)F)C2)CC1` [Cpd 1392], the Kd stood at 0.659 µM.
The same measure, in the same setting: in the case of `CC(C)(C)OC(=O)N1CCC(c2cccc(C(=O)N3CC(N4CCN(C(=O)c5ccccc5)CC4)C3)c2)CC1` [Cpd 538] it was 2.59 µM; in that of `O=C(c1ccccc1)N1CCN(C2CN(C(=O)c3ccc(OCc4ccc(C(F)(F)F)c(F)c4)cc3)C2)CC1` [Cpd 395], 0.159 µM.
As for `CC(=O)Nc1cccc(-c2ccc(C(=O)N3CC(N4CCN(C(=O)c5ccccc5)CC4)C3)cc2)c1` [Cpd 233, N-[4′-({3-[4-(Phenylcarbonyl)piperazin-1-yl]azetidin-1-yl}carbonyl)biphenyl-3-yl]acetamide], the Kd was 1.32 µM.

Staying with this assay, now noted: ThermoFluor, compound concentration measured by qNMR, read-out: MGL mutant ThermoFluor qKd (μM) (using qNMR conc.).
For `Cc1cc(-n2ccc3cc(C(=O)N4CC(N5CCN(C(=O)c6cscn6)CC5)C4)ccc32)ccc1C#N` [Cpd 1421, 2-Methyl-4-[5-({3-[4-(1,3-thiazol-4-ylcarbonyl)piperazin-1-yl]azetidin-1-yl}carbonyl)-1H-indol-1-yl]benzonitrile], the Kd was determined as 0.044 µM.

(Values after US8362000B2, “Azetidinyl diamides as monoacylglycerol lipase inhibitors” (Janssen Pharmaceutica NV, priority 2009, dated 2013).)
